The text below walks through data of article PMC4227718 (Journal of the American Chemical Society, 2014).

Experiment [1] concerns the target Pin1 (Homo sapiens, UniProt Q13526, S16A/Y23A). In words: Fluorescence anisotropy binding to Pin1.
The subject of experiment [2] is HeLa cells. In words: MTT cell proliferation assay. Type of experiment: cell-based. The note with it: 0-20 μM, 72 h.

Turning to “bicyclo[Tm(D-Ala-Sar-D-Thr-D-Ala-Nal-Arg-Ala-D-Ala)-Dap-(Phe-Nal-Arg-Arg-Arg-Arg-Dap)]-Lys-NH2 [peptide 9]”, in experiment [1], the Pin1 inhibitory activity entry is on record as “abolished the Pin1 inhibitory activity”. Further, the “Effect on HeLa cell growth” value in experiment [2] is “no effect”.
